{"source": "paper PMC10289903", "about": "(Investigational New Drugs, 2023)", "origin": "cited, not measured here", "test_system": "platinum-resistant or platinum-refractory recurrent ovarian cancer", "conditions": "placebo plus gemcitabine arm; 95% CI 1.8–3.8; cited from earlier work"}
{"compound": "Nc1ccn([C@@H]2O[C@H](CO)[C@@H](O)C2(F)F)c(=O)n1", "note": "[gemcitabine, reference compound]", "values": [{"measurement": "PFS", "value": 3.0, "unit": "months"}]}
